Structures can show the parent of a compound that is named as a salt.
target: T1, TBK1 (Homo sapiens, UniProt Q9UHD2); assay: TBK1 inhibition, ADP-Glo Kinase Assay; assay type: biochemical; conditions: luminometer
T1 construct: purchased Promega V3991
T1 sequence (Q9UHD2 1-729): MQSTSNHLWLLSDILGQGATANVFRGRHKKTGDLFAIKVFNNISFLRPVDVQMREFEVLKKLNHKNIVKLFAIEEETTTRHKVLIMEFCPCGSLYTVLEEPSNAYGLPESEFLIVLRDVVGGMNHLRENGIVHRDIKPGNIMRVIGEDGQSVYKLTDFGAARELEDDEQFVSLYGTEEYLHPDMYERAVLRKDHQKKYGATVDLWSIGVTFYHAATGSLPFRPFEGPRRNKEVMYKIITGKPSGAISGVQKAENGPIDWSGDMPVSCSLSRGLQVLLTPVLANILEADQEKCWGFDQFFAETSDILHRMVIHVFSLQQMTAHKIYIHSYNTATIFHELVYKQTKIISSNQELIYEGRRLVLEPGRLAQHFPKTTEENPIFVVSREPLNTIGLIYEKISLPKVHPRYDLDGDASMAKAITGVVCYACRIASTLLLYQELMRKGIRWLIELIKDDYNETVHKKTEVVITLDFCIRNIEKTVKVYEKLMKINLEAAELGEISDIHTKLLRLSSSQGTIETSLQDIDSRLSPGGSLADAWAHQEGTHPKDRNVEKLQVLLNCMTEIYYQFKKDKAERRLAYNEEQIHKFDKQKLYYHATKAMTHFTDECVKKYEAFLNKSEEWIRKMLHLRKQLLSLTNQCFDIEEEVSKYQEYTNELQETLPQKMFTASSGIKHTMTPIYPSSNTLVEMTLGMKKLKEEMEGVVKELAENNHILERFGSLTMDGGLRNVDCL
Method: Inhibition activities on TNIK, IKKε and TBK1 were evaluated using the compounds of Examples 1 to 254.
The inhibition activities on TNIK, IKKε and TBK1 were measured by a luminometer, TNIK/IKKε/TBK1 Kinase Enzyme System (Promega, Ca# V4158; Invitrogen, PR8031B, Promega, Ca# V3991) and ADP-Glo Kinase Assay using ADP-Glo™ Kinase Analysis Kit (Promega, Ca# V9101) and a kinase reaction buffer [40 mM Tris(pH 7.5), 20 mM MgCl2, 0.1 mg/mL BSA] in accordance with the manufacturer's protocol.

| IC50 [µM] | SMILES |
| --- | --- |
| 0.83 | COc1ccc(C(=O)Nc2n[nH]c3ccc(C(=O)N(C)Cc4cccs4)cc23)cc1 [Example 4, 3-(4-Methoxybenzamido)-N-methyl-N-(thiophen-2-ylmethyl)-1H-indazole-5-carboxamide] |
| 8.4 | COc1ccc(C(=O)Nc2n[nH]c3ccc(C(=O)N4CCc5ccsc5C4)cc23)cc1 [Example 5, 4-Methoxy-N-(5-(4,5,6,7-tetrahydrothieno[2,3-c]pyridine-6-carbonyl)-1H-indazol-3-yl)benzamide] |
| 0.025 | CSc1ccc(C(=O)Nc2n[nH]c3ccc(C(=O)NCc4cccs4)cc23)cc1 [Example 6, 3-(4-(Methylthio)benzamido)-N-(thiophen-2-ylmethyl)-1H-indazole-5-carboxamide] |
| 0.03 | CC(C)(C)c1ccc(C(=O)Nc2n[nH]c3ccc(C(=O)NCc4cccs4)cc23)cc1 [Example 10, 3-(4-tert-Butylbenzamido)-N-(thiophen-2-ylmethyl)-1H-indazole-5-carboxamide] |
| 0.89 | COc1ccc(C(=O)Nc2n[nH]c3ccc(NCc4cccs4)cc23)cc1 [Example 11, 4-Methoxy-N-(5-((thiophen-2-ylmethyl)amino)-1H-indazol-3-yl)benzamide] |
| 0.43 | COc1ccc(C(=O)Nc2n[nH]c3ccc(-c4ccc(CN5CCOCC5)s4)cc23)cc1 [Example 12, 4-Methoxy-N-(5-(5-(morpholinomethyl)thiophen-2-yl)-1H-indazol-3-yl)benzamide] |
| 0.036 | O=C(NCc1cccs1)c1ccc2[nH]nc(NC(=O)c3ccccc3)c2c1 [Example 13, 3-Benzamido-N-(thiophen-2-ylmethyl)-1H-indazole-5-carboxamide] |
| 0.042 | CC(NC(=O)c1ccc2[nH]nc(NC(=O)c3ccc(F)cc3)c2c1)c1cccs1 (stereo not shown) [Example 14, 3-(4-Fluorobenzamido)-N-(1-(thiophen-2-yl)ethyl)-1H-indazole-5-carboxamide] |
| 0.013 | CCC(NC(=O)c1ccc2[nH]nc(NC(=O)c3ccc(F)cc3)c2c1)c1cccs1 (stereo not shown) [Example 17, 3-(4-Fluorobenzamido)-N-(1-(thiophen-2-yl)propyl)-1H-indazole-5-carboxamide] |
| 0.28 | O=C(NCc1ccncc1)c1ccc2[nH]nc(NC(=O)c3ccc(F)cc3)c2c1 [Example 29, 3-(4-Fluorobenzamido)-N-(pyridin-4-ylmethyl)-1H-indazole-5-carboxamide] |
| 0.036 | O=C(Nc1n[nH]c2ccc(C(=O)NC(c3cccs3)C3CC3)cc12)c1ccc(F)cc1 (stereo not shown) [Example 30, N-(Cyclopropyl(thiophen-2-yl)methyl)-3-(4-fluorobenzamido)-1H-indazole-5-carboxamide] |
| > 10 | O=C(Nc1n[nH]c2ccc(CNCc3cccs3)cc12)c1ccc(F)cc1 [Example 31, 4-Fluoro-N-(5-(((thiophen-2-ylmethyl)amino)methyl)-1H-indazol-3-yl)benzamide Hydrochloride] |
| 0.089 | O=C(NCc1cccs1)c1ccc2[nH]nc(NC(=O)c3ccc(F)cc3)c2c1 [Example 36, 3-(4-Fluorobenzamido)-N-(thiophen-2-ylmethyl)-1H-indazole-5-carboxamide] |
| > 10 | O=C(NCc1cccs1)c1ccc2[nH]nc(NS(=O)(=O)c3ccccc3)c2c1 [Example 39, 3-(Phenylsulfonamido)-N-(thiophen-2-ylmethyl)-1H-indazole-5-carboxamide] |
| 0.2 | CN(Cc1cccs1)C(=O)c1ccc2[nH]nc(NC(=O)c3ccc(N4CCOCC4)cc3)c2c1 [Example 42, N-Methyl-3-(4-morpholinobenzamido)-N-(thiophen-2-ylmethyl)-1H-indazole-5-carboxamide] |
| 0.019 | O=C(NCc1ccncc1)c1ccc2[nH]nc(NC(=O)c3ccc(N4CCOCC4)cc3)c2c1 [Example 120, 3-(4-Morpholinobenzamido)-N-(pyridin-4-ylmethyl)-1H-indazole-5-carboxamide] |
| 0.0054 | O=C(NCc1cccs1)c1ccc2[nH]nc(NC(=O)c3ccc(NCCC4CCOCC4)cc3)c2c1 [Example 160, 3-(4-((2-(Tetrahydro-2H-pyran-4-yl)ethyl)amino)benzamido)-N-(thiophen-2-ylmethyl)-1H-indazole-5-carboxamide] |

| IC50 [µM] | SMILES |
| --- | --- |
| 0.76 | CCCCCCNc1ccc(C(=O)Nc2n[nH]c3ccc(C(=O)NCc4cccs4)cc23)cc1 [Example 161, 3-(4-(Hexylamino)benzamido)-N-(thiophen-2-ylmethyl)-1H-indazole-5-carboxamide] |
| 0.08 | O=C(NCc1cccs1)c1ccc2[nH]nc(NC(=O)c3ccc(NC4CCCCC4)cc3)c2c1 [Example 162, 3-(4-(Cyclohexylamino)benzamido)-N-(thiophen-2-ylmethyl)-1H-indazole-5-carboxamide] |
| 0.036 | O=C(NCc1cccs1)c1ccc2[nH]nc(NC(=O)c3ccc(NC4CCCC4)cc3)c2c1 [Example 163, 3-(4-(Cyclopentylamino)benzamido)-N-(thiophen-2-ylmethyl)-1H-indazole-5-carboxamide] |
| 5.6 | O=C(NCc1cccs1)c1ccc2[nH]nc(NC(=O)c3ccc(NC4CCCCCC4)cc3)c2c1 [Example 164, 3-(4-(Cycloheptylamino)benzamido)-N-(thiophen-2-ylmethyl)-1H-indazole-5-carboxamide] |
| 0.43 | O=C(NCc1cccs1)c1ccc2[nH]nc(NC(=O)c3ccc(NC4CCCCCCC4)cc3)c2c1 [Example 165, 3-(4-(Cyclooctylamino)benzamido)-N-(thiophen-2-ylmethyl)-1H-indazole-5-carboxamide] |
| 0.26 | O=C(NCc1cccs1)c1ccc2[nH]nc(NC(=O)c3ccc(NCC4CCCCC4)cc3)c2c1 [Example 166, 3-(4-((Cyclohexylmethyl)amino)benzamido)-N-(thiophen-2-ylmethyl)-1H-indazole-5-carboxamide] |
| 6.6 | O=C(NCc1cccs1)c1ccc2[nH]nc(NC(=O)c3ccc(N4CCOCC4)cc3N3CCOCC3)c2c1 [Example 168, 3-(2,4-Dimorpholinobenzamido)-N-(thiophen-2-ylmethyl)-1H-indazole-5-carboxamide] |
| 0.03 | O=C(NCc1cccs1)c1ccc2[nH]nc(NC(=O)c3ccc(NCCn4cccc4)cc3)c2c1 [Example 169, 3-(4-((2-(1H-Pyrrol-1-yl)ethyl)amino)benzamido)-N-(thiophen-2-ylmethyl)-1H-indazole-5-carboxamide] |
| > 10 | CN1CCN(c2ccc(C(=O)Nc3n[nH]c4ccc(C(=O)NCc5cccs5)cc34)c(F)c2)CC1 [Example 170, 3-(2-Fluoro-4-(4-methylpiperazin-1-yl)benzamido)-N-(thiophen-2-ylmethyl)-1H-indazole-5-carboxamide] |
| 0.093 | O=C(NCc1cccs1)c1ccc2[nH]nc(NC(=O)c3ccc(O)cc3)c2c1 [Example 200, 3-(4-Hydroxybenzamido)-N-(thiophen-2-ylmethyl)-1H-indazole-5-carboxamide] |
| 0.075 | O=C(NCc1cccs1)c1ccc2[nH]nc(NC(=O)c3ccc([N+](=O)[O-])cc3)c2c1 [Example 203, 3-(4-Nitrobenzamido)-N-(thiophen-2-ylmethyl)-1H-indazole-5-carboxamide] |
| 0.077 | O=C(NCc1cccs1)c1ccc2[nH]nc(NC(=O)c3cccc([N+](=O)[O-])c3)c2c1 [Example 204, 3-(3-Nitrobenzamido)-N-(thiophen-2-ylmethyl)-1H-indazole-5-carboxamide] |
| 0.003 | Nc1ccc(C(=O)Nc2n[nH]c3ccc(C(=O)NCc4cccs4)cc23)cc1 [Example 205, 3-(4-Aminobenzamido)-N-(thiophen-2-ylmethyl)-1H-indazole-5-carboxamide] |
| 0.026 | O=C(NCc1cccs1)c1ccc2[nH]nc(NC(=O)c3ccc(NC(=O)C4CCC4)cc3)c2c1 [Example 206, 3-(4-(Cyclobutanecarboxamido)benzamido)-N-(thiophen-2-ylmethyl)-1H-indazole-5-carboxamide] |
| 0.038 | O=C(NCc1cccs1)c1ccc2[nH]nc(NC(=O)c3ccc(NC(=O)C4(C(F)(F)F)CC4)cc3)c2c1 [Example 207, N-(Thiophen-2-ylmethyl)-3-(4-(1-(trifluoromethyl)cyclopropanecarboxamido)benzamido)-1H-indazole-5-carboxamide] |
| 0.027 | O=C1CC(C(=O)Nc2ccc(C(=O)Nc3n[nH]c4ccc(C(=O)NCc5cccs5)cc34)cc2)C1 [Example 208, 3-(4-(3-Oxocyclobutanecarboxamido)benzamido)-N-(thiophen-2-ylmethyl)-1H-indazole-5-carboxamide] |
| 0.12 | CC(C)(C)OC(=O)N1CCC[C@H]1C(=O)Nc1ccc(C(=O)Nc2n[nH]c3ccc(C(=O)NCc4cccs4)cc23)cc1 [Example 210, tert-Butyl (S)-2-((4-((5-((thiophen-2-ylmethyl)carbamoyl)-1H-indazol-3-yl)carbamoyl)phenyl)carbamoyl)pyrrolidine-1-carboxylate] |
